Experimental data from PMC10410513, “Differential roles for ACBD4 and ACBD5 in peroxisome–ER interactions and lipid metabolism” (The Journal of Biological Chemistry, 2023).

How the values were obtained:
ACBD4 = target: T1, ACBD4 (Homo sapiens, UniProt Q8NC06); assay: competition with […]C18:1-CoA, pull-down on Ni-NTA resin; type: binding; settings: 2 uM protein, 5 uM [14C]C18:1-CoA, 0.2-20 uM competitor
T1 construct: recombinant MBP-His tagged, E. coli, amylose resin purified, tag kept
T1 sequence (Q8NC06 1-305 isoform Q8NC06-2): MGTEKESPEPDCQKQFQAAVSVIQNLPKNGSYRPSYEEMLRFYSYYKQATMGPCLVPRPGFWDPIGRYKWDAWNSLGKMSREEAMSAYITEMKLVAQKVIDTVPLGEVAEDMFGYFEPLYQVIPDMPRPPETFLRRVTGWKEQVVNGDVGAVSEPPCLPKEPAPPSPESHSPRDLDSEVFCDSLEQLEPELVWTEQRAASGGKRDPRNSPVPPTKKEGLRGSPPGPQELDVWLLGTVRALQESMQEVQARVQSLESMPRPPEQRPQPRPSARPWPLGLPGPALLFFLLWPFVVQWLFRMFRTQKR

ACBD5 = target: T2, ACBD5 (Homo sapiens, UniProt Q5T8D3); assay: as above; type: binding; settings: 2 uM protein, 5 uM [14C]C18:1-CoA, 0.2-20 uM competitor
T2 construct: recombinant MBP-His tagged, E. coli, amylose resin purified, tag kept
T2 sequence (Q5T8D3 1-490 isoform Q5T8D3-2): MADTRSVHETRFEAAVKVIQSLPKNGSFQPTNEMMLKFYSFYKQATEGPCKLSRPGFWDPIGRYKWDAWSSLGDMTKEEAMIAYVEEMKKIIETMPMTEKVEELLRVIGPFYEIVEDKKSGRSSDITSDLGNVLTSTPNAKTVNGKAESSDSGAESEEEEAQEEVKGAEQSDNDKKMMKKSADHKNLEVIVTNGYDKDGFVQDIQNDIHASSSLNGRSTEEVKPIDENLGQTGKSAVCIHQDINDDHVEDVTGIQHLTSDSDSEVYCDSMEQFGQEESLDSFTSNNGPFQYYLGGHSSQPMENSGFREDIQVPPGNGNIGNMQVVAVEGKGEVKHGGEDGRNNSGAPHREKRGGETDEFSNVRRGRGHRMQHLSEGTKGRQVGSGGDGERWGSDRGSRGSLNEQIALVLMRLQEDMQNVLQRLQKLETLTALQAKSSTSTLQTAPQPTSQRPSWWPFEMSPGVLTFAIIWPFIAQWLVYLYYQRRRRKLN

Structure (SMILES): CCCCCCCCCCCCCCCCCCCCCCCC(=O)SCCNC(=O)CCNC(=O)[C@H](O)C(C)(C)COP(=O)(O)OP(=O)(O)OC[C@H]1O[C@@H](n2cnc3c(N)ncnc32)[C@H](O)[C@@H]1OP(=O)(O)O [C24-CoA]
- competition with [14C]C18:1-CoA, pull-down on Ni-NTA resin (ACBD4): ACBD4, which displayed a similar preference for long and very-long acyl-CoAs
- competition with [14C]C18:1-CoA, pull-down on Ni-NTA resin (ACBD5): a stronger preference for the very-long-chain C24-CoA compared to the two long-chain acyl-CoAs
